Measured values published in ChEMBL document CHEMBL6078684, “Discovery of a Novel Non-invasive AR PROTAC Degrader for the Topical Treatment of Androgenetic Alopecia” (J Med Chem, 2024).
Activity calls are given as the source filed them. No cut-off for these calls is given here.

Columns and labels:
[1] = target: T1, Protein cereblon/Androgen receptor (Homo sapiens, UniProt P10275+Q96SW2); experiment: PROTAC activity at CRBN/AR in human dermal papilla cells assessed as inhibition of TGF-beta1 release by measuring fold change in TGF-beta1 concentration at 1 uM preincubated with testosterone for 24 hrs followed by compound addition and measured after 48 hrs by ELISA relative to minoxidil; format: cell-based; details: Human dermal papilla cell
Target sequence in this assay (P10275 whole entry, looked up): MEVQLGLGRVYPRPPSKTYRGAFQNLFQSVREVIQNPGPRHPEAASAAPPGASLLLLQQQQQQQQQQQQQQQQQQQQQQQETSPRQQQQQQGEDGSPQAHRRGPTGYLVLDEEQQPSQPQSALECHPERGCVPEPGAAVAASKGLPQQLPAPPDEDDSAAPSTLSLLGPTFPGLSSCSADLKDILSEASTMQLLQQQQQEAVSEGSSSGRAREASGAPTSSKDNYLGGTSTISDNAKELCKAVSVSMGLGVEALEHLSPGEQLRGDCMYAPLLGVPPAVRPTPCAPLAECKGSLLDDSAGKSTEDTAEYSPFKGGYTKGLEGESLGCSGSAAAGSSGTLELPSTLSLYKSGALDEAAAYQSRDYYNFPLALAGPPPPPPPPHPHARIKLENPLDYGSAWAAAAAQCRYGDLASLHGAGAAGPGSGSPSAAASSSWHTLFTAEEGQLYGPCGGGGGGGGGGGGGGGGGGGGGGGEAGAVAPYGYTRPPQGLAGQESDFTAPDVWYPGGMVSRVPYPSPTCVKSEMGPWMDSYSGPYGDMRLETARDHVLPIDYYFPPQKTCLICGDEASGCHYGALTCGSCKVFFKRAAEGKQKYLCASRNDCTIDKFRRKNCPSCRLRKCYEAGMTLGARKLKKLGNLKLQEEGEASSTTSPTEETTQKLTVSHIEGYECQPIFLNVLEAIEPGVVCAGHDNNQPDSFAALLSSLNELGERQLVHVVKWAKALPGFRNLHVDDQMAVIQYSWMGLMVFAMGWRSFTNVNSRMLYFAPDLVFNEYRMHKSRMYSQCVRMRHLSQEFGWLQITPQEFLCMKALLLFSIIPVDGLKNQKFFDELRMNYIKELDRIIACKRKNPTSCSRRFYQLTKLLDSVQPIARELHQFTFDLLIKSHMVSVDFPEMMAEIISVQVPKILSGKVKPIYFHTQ
Target sequence in this assay (Q96SW2 whole entry, looked up): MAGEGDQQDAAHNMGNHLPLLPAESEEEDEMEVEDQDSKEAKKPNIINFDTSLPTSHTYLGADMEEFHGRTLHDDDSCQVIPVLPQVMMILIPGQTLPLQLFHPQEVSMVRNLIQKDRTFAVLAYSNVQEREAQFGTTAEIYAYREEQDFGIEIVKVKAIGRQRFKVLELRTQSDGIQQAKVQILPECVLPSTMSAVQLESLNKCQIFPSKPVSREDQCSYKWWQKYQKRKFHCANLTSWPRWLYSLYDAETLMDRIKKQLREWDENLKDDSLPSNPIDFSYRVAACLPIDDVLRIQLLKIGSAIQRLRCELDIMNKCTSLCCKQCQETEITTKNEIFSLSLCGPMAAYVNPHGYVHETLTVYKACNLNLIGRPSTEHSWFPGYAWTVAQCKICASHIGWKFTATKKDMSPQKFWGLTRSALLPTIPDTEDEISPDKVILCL

[2] = target: T1, Protein cereblon/Androgen receptor; experiment: PROTAC activity at CRBN/AR in human dermal papilla cells assessed as inhibition of TGF-beta1 release by measuring TGF-beta1 concentration at 500 nM preincubated with testosterone for 24 hrs followed by compound addition and measured after 48 hrs by ELISA; format: cell-based; details: Human dermal papilla cell
Target sequence in this assay (P10275 whole entry, looked up): as the sequence (P10275 whole entry, looked up) above
Target sequence in this assay (Q96SW2 whole entry, looked up): as the sequence (Q96SW2 whole entry, looked up) above

[3] = Ratio of drug concentration in male ICR mouse skin to plasma at 4 mg/ml, TOP measured after 1 hrs by LC-MS/MS analysis; format: ADME, cell-free; details: topical or ocular
[4] = Ratio of drug concentration in male ICR mouse skin to lungs at 4 mg/ml, TOP measured after 0.25 hrs by LC-MS/MS analysis; format: ADME, tissue-based, Skin/Lung; details: in vivo, topical_or_ocular
[5] = Drug uptake in male ICR mouse lung at 4 mg/ml, TOP measured after 12 hrs by LC-MS/MS analysis; format: ADME, tissue-based; details: in vivo, topical_or_ocular
[6] = Ratio of drug concentration in male ICR mouse skin to heart at 4 mg/ml, TOP measured after 2 hrs by LC-MS/MS analysis; format: ADME, tissue-based; details: in vivo, topical_or_ocular
[7] = Ratio of drug concentration in male ICR mouse skin to spleen at 4 mg/ml, TOP measured after 0.5 hrs by LC-MS/MS analysis; format: ADME, tissue-based; details: in vivo, topical_or_ocular
[8] = Drug uptake in male Sprague-Dawley rat Dorsal skin assessed as retention rat at 1 mg/ml, TOP measured after 30 mins by LC-MS/MS analysis; format: ADME, tissue-based, Zone of skin; details: in vivo, topical_or_ocular, 0.5 h
Mus musculus [9] = experiment: Hair regeneration efficacy in testosterone induced male C57BL/6 mouse androgenetic alopecia model assessed as earlier pigmentation at 0.1 to 0.4 %, TOP administered once daily for 14 days and measured after 21 days with co-administration of 0.2% testosterone for 28 days by photographic analysis; format: functional, organism-based; details: dose 0.1-0.4 %, time 14.0 day
Mus musculus [10] = experiment: Hair regeneration efficacy in testosterone induced male C57BL/6 mouse androgenetic alopecia model assessed as generation of thick hair with intact scales at 0.4 %, TOP administered once daily for 14 days with co-administration of 0.2% testosterone and measured after 28 days by SEM analysis; format: functional, organism-based; details: time 28.0 day
[11] = Ratio of drug concentration in male ICR mouse skin to liver at 4 mg/ml, TOP measured after 4 hrs by LC-MS/MS analysis; format: ADME, tissue-based; details: in vivo, topical_or_ocular
[12] = target: T1, Protein cereblon/Androgen receptor; experiment: PROTAC activity at CRBN/AR in human dermal papilla cells assessed as inhibition of TGF-beta1 release by measuring fold change in TGF-beta1 concentration at 1 uM preincubated with testosterone for 24 hrs followed by compound addition and measured after 48 hrs by ELISA relative to enzalutamide; format: cell-based; details: Human dermal papilla cell
Target sequence in this assay (P10275 whole entry, looked up): as the sequence (P10275 whole entry, looked up) above
Target sequence in this assay (Q96SW2 whole entry, looked up): as the sequence (Q96SW2 whole entry, looked up) above

[13] = Ratio of drug concentration in male ICR mouse skin to liver at 4 mg/ml, TOP measured after 2 hrs by LC-MS/MS analysis; format: ADME, tissue-based; details: in vivo, topical_or_ocular
[14] = Ratio of drug concentration in male ICR mouse skin to liver at 4 mg/ml, TOP measured after 0.5 hrs by LC-MS/MS analysis; format: ADME, tissue-based; details: in vivo, topical_or_ocular
[15] = Ratio of drug concentration in male ICR mouse skin to lungs at 4 mg/ml, TOP measured after 2 hrs by LC-MS/MS analysis; format: ADME, tissue-based, Skin/Lung; details: in vivo, topical_or_ocular
[16] = Ratio of drug concentration in male ICR mouse skin to heart at 4 mg/ml, TOP measured after 1 hrs by LC-MS/MS analysis; format: ADME, tissue-based; details: in vivo, topical_or_ocular
Mus musculus [17] = experiment: Hair regeneration efficacy in testosterone induced male C57BL/6 mouse androgenetic alopecia model assessed as improvement in morphology of regenerated hair at 0.1 %, TOP administered once daily for 14 days with co-administration of 0.2% testosterone and measured after 28 days by SEM analysis; format: functional, organism-based; details: time 28.0 day
[18] = Ratio of drug concentration in male ICR mouse skin to kidney at 4 mg/ml, TOP measured after 1 hrs by LC-MS/MS analysis; format: ADME, tissue-based; details: in vivo, topical_or_ocular
[19] = target: T1, Protein cereblon/Androgen receptor; experiment: PROTAC activity at CRBN/AR in human dermal papilla cells assessed as increase in beta-catenin protein level at 250 to 1000 nM preincubated with testosterone for 24 hrs followed by compound addition and measured after 48 hrs by Western blot analysis; format: cell-based; details: Human dermal papilla cell, dose 250-1000 nM
Target sequence in this assay (P10275 whole entry, looked up): as the sequence (P10275 whole entry, looked up) above
Target sequence in this assay (Q96SW2 whole entry, looked up): as the sequence (Q96SW2 whole entry, looked up) above

[20] = AUC (0 to t) in male ICR mouse skin at 4 mg/ml, TOP measured after 12 hrs by LC-MS/MS analysis; format: ADME, tissue-based, Skin of body; details: in vivo, topical_or_ocular
Mus musculus [21] = experiment: Hair regeneration efficacy in testosterone induced male C57BL/6 mouse androgenetic alopecia model assessed as entry of hair follicles to anagen phase by measuring high density of enlarged hair bulbs in subcutaneous tissue at 0.1 %, TOP administered once daily for 14 days with co-administration of 0.2% testosterone for 28 days by H and E staining based analysis; format: functional, organism-based; details: time 14.0 day
[22] = target: T1, Protein cereblon/Androgen receptor; experiment: PROTAC activity at CRBN/AR in human dermal papilla cells assessed as decrease in TGF-beta1 expression level at 250 to 1000 nM preincubated with testosterone for 24 hrs followed by compound addition and measured after 48 hrs by Western blot analysis; format: cell-based; details: Human dermal papilla cell, dose 250-1000 nM
Target sequence in this assay (P10275 whole entry, looked up): as the sequence (P10275 whole entry, looked up) above
Target sequence in this assay (Q96SW2 whole entry, looked up): as the sequence (Q96SW2 whole entry, looked up) above

[23] = Ratio of drug concentration in male ICR mouse skin to kidney at 4 mg/ml, TOP measured after 8 hrs by LC-MS/MS analysis; format: ADME, tissue-based; details: in vivo, topical_or_ocular
Mus musculus [24] = experiment: Hair regeneration efficacy in testosterone induced male C57BL/6 mouse androgenetic alopecia model assessed as increase in hair cycle score at 0.1 %, TOP administered once daily for 14 days with co-administration of 0.2% testosterone for 28 days; format: functional, organism-based; details: time 14.0 day
[25] = Ratio of drug concentration in male ICR mouse skin to heart at 4 mg/ml, TOP measured after 4 hrs by LC-MS/MS analysis; format: ADME, tissue-based; details: in vivo, topical_or_ocular
[26] = Ratio of drug concentration in male ICR mouse skin to lungs at 4 mg/ml, TOP measured after 8 hrs by LC-MS/MS analysis; format: ADME, tissue-based, Skin/Lung; details: in vivo, topical_or_ocular
[27] = Ratio of drug concentration in male ICR mouse skin to kidney at 4 mg/ml, TOP measured after 12 hrs by LC-MS/MS analysis; format: ADME, tissue-based; details: in vivo, topical_or_ocular
[28] = target: T1, Protein cereblon/Androgen receptor; experiment: PROTAC activity at CRBN/AR in human dermal papilla cell assessed as induction of AR degradation measured after 24 hrs by Western blot analysis; format: cell-based
Target sequence in this assay (P10275 whole entry): as the sequence (P10275 whole entry, looked up) above
Target sequence in this assay (Q96SW2 whole entry): as the sequence (Q96SW2 whole entry, looked up) above

[29] = Ratio of drug concentration in male ICR mouse skin to kidney at 4 mg/ml, TOP measured after 0.25 hrs by LC-MS/MS analysis; format: ADME, tissue-based; details: in vivo, topical_or_ocular
[30] = target: T1, Protein cereblon/Androgen receptor; experiment: PROTAC activity at CRBN/AR in human dermal papilla cells assessed as decrease in AR protein level at 250 to 1000 nM preincubated with testosterone for 24 hrs followed by compound addition and measured after 48 hrs by Western blot analysis; format: cell-based; details: Human dermal papilla cell, dose 250-1000 nM
Target sequence in this assay (P10275 whole entry, looked up): as the sequence (P10275 whole entry, looked up) above
Target sequence in this assay (Q96SW2 whole entry, looked up): as the sequence (Q96SW2 whole entry, looked up) above

[31] = Ratio of drug concentration in male ICR mouse skin to kidney at 4 mg/ml, TOP measured after 4 hrs by LC-MS/MS analysis; format: ADME, tissue-based; details: in vivo, topical_or_ocular
Mus musculus [32] = experiment: Hair regeneration efficacy in testosterone induced male C57BL/6 mouse androgenetic alopecia model assessed as increase in hair diameter at 0.1 %, TOP administered once daily for 14 days with co-administration of 0.2% testosterone and measured after 28 days by SEM analysis; format: functional, organism-based; details: time 28.0 day
[33] = target: T1, Protein cereblon/Androgen receptor; experiment: PROTAC activity at CRBN/AR in human dermal papilla cell assessed as induction of AR degradation measured after 24 to 72 hrs by Western blot analysis; format: cell-based
Target sequence in this assay (P10275 whole entry): as the sequence (P10275 whole entry, looked up) above
Target sequence in this assay (Q96SW2 whole entry): as the sequence (Q96SW2 whole entry, looked up) above

N#Cc1ccc(O[C@H]2CC[C@H](NC(=O)c3ccc(C4CCN(CC5CCCN(c6ccc(C(=O)NC7CCC(=O)NC7=O)cc6)C5)CC4)cc3)CC2)cc1Cl (stereo partly drawn)
fold change (FC) [1]: 0.77 | Activity [2]: 869 pg/mL | Kp at 1 h [3]: 71.5 | Ratio [4]: 269.54 | Drug uptake [5]: Active | Ratio [6]: 638.59 | Ratio [7]: 67.05 | Drug uptake [8]: 2.48% | Activity (Mus musculus [9]): Active | Activity (Mus musculus [10]): Active | Ratio [11]: 629.99 | fold change (FC) [12]: 0.62 | Ratio [13]: 441.98 | Ratio [14]: 465.04 | Ratio [15]: 198.98 | Ratio [16]: 996.6 | Activity (Mus musculus [17]): Active | Ratio [18]: 467.24 | Activity [19]: Active | AUCt [20]: 651924.91 ng·h/g | Activity (Mus musculus [21]): Active; Less Effective Compared To High Dose Compound Group And Minoxidil Group | Activity [22]: Active | Ratio [23]: 191.71 | Activity (Mus musculus [24]): Active; Less Effective Compared To High Dose Compound Group And Minoxidil Group | Ratio [25]: 403.09 | Ratio [26]: 800.46 | Ratio [27]: 101.26 | DC50 [28]: 262 nM | Ratio [29]: 484.4 | Activity [30]: Active | Ratio [31]: 285.69 | Activity (Mus musculus [32]): Active | DC50 [33]: 200 nM
